From patent publication US20180057505A1, “BICYCLIC HETEROARYL COMPOUNDS USEFUL AS INHIBITORS OF THE PAR-2 SIGNALING PATHWAY” (VERTEX PHARMACEUTICALS INCORPORATED, priority 2015, published 2018)

Experiments:
Format in all cases: cell-based
PAR2 (HT-29 cells) [1] = target: T1, PAR2 (HT-29 cells) (Homo sapiens, UniProt P55085); assay: Ca FLIPR TETRA assay, ANTAGONIST mode, activator 8 μM SLIGKV; conditions: HT-29 cells; activator 8 μM SLIGKV; Method A: maximal concentration of antagonist 0.1, 1 or 2 μM
T1 construct: host or cells: HT-29
T1 sequence (P55085 26-397): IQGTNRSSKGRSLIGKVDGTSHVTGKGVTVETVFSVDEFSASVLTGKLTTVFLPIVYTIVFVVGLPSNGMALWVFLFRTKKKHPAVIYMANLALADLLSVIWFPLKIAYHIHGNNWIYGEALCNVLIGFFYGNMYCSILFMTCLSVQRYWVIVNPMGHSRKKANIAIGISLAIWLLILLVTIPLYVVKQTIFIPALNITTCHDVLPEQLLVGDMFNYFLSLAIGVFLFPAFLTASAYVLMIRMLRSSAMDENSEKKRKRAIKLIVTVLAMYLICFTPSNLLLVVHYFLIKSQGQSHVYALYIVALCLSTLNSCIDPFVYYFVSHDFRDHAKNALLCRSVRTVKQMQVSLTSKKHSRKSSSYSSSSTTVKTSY
Procedure, shortened: (§1)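 Inhibition of agonist-evoked calcium signals was measured in human HT-29 colon cells cultured overnight in 1% FBS McCoy's medium. Test compounds preincubated 30 min at r.t.; activators at final concentrations as stated for each readout.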

[2] = system: UTP-stimulated Ca2+ response in HT-29 cells; assay: Ca FLIPR TETRA assay, ANTAGONIST mode, activator 0.6 μM UTP; conditions: HT-29 cells, activator 0.6 μM UTP
Procedure, shortened: as §1

[3] = system: Thrombin-stimulated Ca2+ response in HT-29 cells; assay: Ca FLIPR TETRA assay, ANTAGONIST mode, activator 1 U/mL Thrombin; conditions: HT-29 cells, activator 1 U/mL Thrombin
Procedure, shortened: as §1

PAR2 (HT-29 cells) [4] = target: T1, PAR2 (HT-29 cells); assay: Ca FLIPR TETRA assay, ANTAGONIST mode, activator 3.1 U/mL trypsin; conditions: HT-29 cells; activator 3.1 U/mL trypsin; Method A: maximal concentration of antagonist 0.1, 1 or 2 μM
Procedure, shortened: as §1

Row | SMILES | IC50 (PAR2 (HT-29 cells) [1]) | IC50 ([2]; Homo sapiens) | IC50 ([3]; Homo sapiens) | IC50 (PAR2 (HT-29 cells) [4]) | IC50 [2] | IC50 [3]
1 | CC(C)(C)c1cc(-c2ccc(Cl)cc2)nc2cc(C(=O)N3CCN(c4nccc(C(=O)O)n4)CC3(C)C)oc12 [Example I-457] | 0.8 nM | 1500 nM | 1900 nM | 0.9 nM |  | 
2 | CC1(C)CCC(c2cc(C(C)(C)C)c3oc(C(=O)N4CCN(c5cccc(C(=O)O)n5)C(=O)C4(C)C)cc3n2)CC1 [Example I-458] | 8.7 nM | 1190 nM | 1150 nM | 18 nM |  | 
3 | CC(C)(C)c1cc(-c2ccc(Cl)c(F)c2)nc2cc(C(=O)N3CCN(c4cccc(C(=O)O)n4)C(=O)C3(C)C)oc12 [Example I-459] | 1.8 nM | 660 nM | 350 nM | 1.3 nM |  | 
4 | CC(C)(C)c1cc(-c2ccc(Cl)cc2)nc2cc(C(=O)N3CCN(c4cccc(C(=O)O)n4)C(=O)C3(C)C)oc12 [Example I-460] | 10.6 nM | 1870 nM | 1730 nM | 14 nM |  | 
5 | CC(C)(C)c1cc(-c2ccc(Cl)c(F)c2)nc2cc(C(=O)N3CCN(c4nccc(C(=O)O)n4)CC3(C)C)oc12 [Example I-461] | 0.4 nM | 560 nM | 660 nM | 0.5 nM |  | 
6 | Cc1nc(N2CCN(C(=O)c3cc4nc(-c5ccc(Cl)cc5)cc(C(C)(C)C)c4o3)C(C)(C)C2)ncc1C(=O)O [Example I-462] | 0.6 nM | 1250 nM | 1600 nM | 0.8 nM |  | 
7 | CC(C)(C)c1cc(-c2ccc(Cl)cc2)nc2cc(C(=O)N3CCN(c4cncc(C(=O)O)n4)CC3(C)C)oc12 [Example I-463] | 0.7 nM | 860 nM | 1010 nM | 0.9 nM |  | 
8 | CC1(C)CCC(c2cc(C(C)(C)C)c3oc(C(=O)N4CCN(c5cncc(C(=O)O)n5)CC4(C)C)cc3n2)CC1 [Example I-464] | 0.5 nM | 610 nM | 810 nM | 0.9 nM |  | 
9 | Cc1nc(N2CCN(C(=O)c3cc4nc(C5CCC(C)(C)CC5)cc(C(C)(C)C)c4o3)C(C)(C)C2)ncc1C(=O)O [Example I-465] | 0.5 nM | 960 nM | > 1010 nM | 1.2 nM |  | 
10 | Cc1nc(N2CCN(C(=O)c3cc4nc(-c5ccc(Cl)c(F)c5)cc(C(C)(C)C)c4o3)C(C)(C)C2)ncc1C(=O)O [Example I-466] | 0.2 nM | 995 nM | 1150 nM | 0.4 nM |  | 
11 | CCS(=O)(=O)NCC(=O)N1CCN(C(=O)c2cc3nc(-c4ccc(Cl)cc4)cc(C(C)(C)C)c3o2)C(C)(C)C1 [Example I-467] | 4.3 nM | > 2000 nM | > 2000 nM | 7.7 nM |  | 
12 | CCS(=O)(=O)NCC(=O)N1CCN(C(=O)c2cc3nc(-c4ccc(Cl)c(F)c4)cc(C(C)(C)C)c3o2)C(C)(C)C1 [Example I-468] | 2.5 nM | > 2000 nM | > 2000 nM | 4.7 nM |  | 
13 | CC(C)(C)c1cc(-c2ccc(Cl)c(F)c2)nc2cc(C(=O)N3CCN(c4cncc(C(=O)O)n4)CC3(C)C)oc12 [Example I-469] | 0.3 nM | > 2000 nM | > 2000 nM | 0.6 nM |  | 
14 | CC(C)(C)c1cc(-c2ccc(Cl)c(F)c2)nc2cc(C(=O)N3CCN(c4nccnc4C(=O)O)CC3(C)C)oc12 [Example I-470] | 5.7 nM | > 2000 nM | > 2000 nM | 6.2 nM |  | 
15 | CC(C)(C)c1cc(-c2ccc(Cl)cc2)nc2cc(C(=O)N3CCN(c4ccc(C(=O)O)nn4)CC3(C)C)oc12 [Example I-471] | 1.1 nM | > 2000 nM | > 2000 nM | 1.4 nM |  | 
16 | CC(C)(C)c1cc(-c2ccc(Cl)c(F)c2)nc2cc(C(=O)N3CCN(C(=O)[C@@H]4CCS(=O)(=O)N4)CC3(C)C)oc12 [Example I-472] | 33.9 nM | > 2000 nM | > 2000 nM | 20 nM |  | 

Row | SMILES | IC50 (PAR2 (HT-29 cells) [1]) | IC50 ([2]; Homo sapiens) | IC50 ([3]; Homo sapiens) | IC50 (PAR2 (HT-29 cells) [4]) | IC50 [2] | IC50 [3]
17 | CC(C)(C)c1cc(-c2ccc(Cl)c(F)c2)nc2cc(C(=O)N3CCN(C(=O)[C@H]4CCS(=O)(=O)N4)CC3(C)C)oc12 [Example I-473] | 18 nM | > 2000 nM | > 2000 nM | 27.7 nM |  | 
18 | CC(C)(C)c1cc(-c2ccc(Cl)cc2)nc2cc(C(=O)N3CCN(C(=O)[C@@H]4CCS(=O)(=O)N4)CC3(C)C)oc12 [Example I-474] | 39 nM | > 2000 nM | > 2000 nM | 53 nM |  | 
19 | CC(C)(C)c1cc(-c2ccc(Cl)cc2)nc2cc(C(=O)N3CCN(C(=O)[C@H]4CCS(=O)(=O)N4)CC3(C)C)oc12 [Example I-475] | 26 nM | > 2000 nM | > 2000 nM | 34 nM |  | 
20 | Cc1nc(N2CCN(C(=O)c3cc4nc(-c5ccc(Cl)c(F)c5)cc(C(C)(C)C)c4o3)C(C)(C)C2)oc1C(=O)O [Example I-476] | 0.7 nM | > 500 nM | > 500 nM | 1.6 nM |  | 
21 | CC(C)(C)c1cc(-c2ccc(Cl)cc2)nc2cc(C(=O)N3CCN(c4cncc(C(=O)O)c4)CC3(C)C)oc12 [Example I-477] | 0.7 nM | > 500 nM | > 500 nM | 1.8 nM |  | 
22 | Cc1nc(N2CCN(C(=O)c3cc4nc(-c5ccc(Cl)cc5)cc(C(C)(C)C)c4o3)C(C)(C)C2)oc1C(=O)O [Example I-478] | 1.9 nM | > 500 nM | > 500 nM | 4.1 nM |  | 
23 | CC(C)(C)c1cc(-c2ccc(Cl)cc2)nc2cc(C(=O)N3CCN(c4cccc(C(=O)O)n4)CC3(C)C)oc12 [Example I-479] | 0.2 nM | 1030 nM | 1500 nM | 0.3 nM |  | 
24 | CC(C)(C)c1cc(-c2ccc(Cl)cc2)nc2cc(C(=O)N3CCN(c4nc(C(=O)O)co4)CC3(C)C)oc12 [Example I-481] | 0.3 nM | > 1250 nM | > 1250 nM | 0.4 nM |  | 
25 | COc1ccc(N2CCN(C(=O)c3cc4nc(-c5ccc(Cl)c(F)c5)cc(C(C)(C)C)c4o3)C(C)(C)C2)nc1C(=O)O [Example I-482] | 0.2 nM | 1200 nM | > 2000 nM | 0.2 nM |  | 
26 | CC(C)(C)c1cc(-c2ccc(Cl)cc2)nc2cc(C(=O)N3CCN(c4ncccn4)C(=O)C3(C)C)oc12 [Example I-483] | 3.6 nM | > 2000 nM | > 2000 nM | 2.8 nM |  | 
27 | CC(C)(CN1CCN(C(=O)c2cc3nc(-c4ccc(Cl)c(F)c4)cc(C(C)(C)C)c3o2)C(C)(C)C1=O)C(=O)O [Example I-484] | 0.5 nM | > 1100 nM | > 1100 nM | 1.1 nM |  | 
28 | Cc1ccnc(N2CCN(C(=O)c3cc4nc(-c5ccc(Cl)c(F)c5)cc(C(C)(C)C)c4o3)C(C)(C)C2)c1C(=O)O [Example I-485] | 16 nM | > 2000 nM | > 2000 nM | 18 nM |  | 
29 | CC1(C)CCC(c2cc(C(C)(C)C)c3oc(C(=O)N4CCNC(=O)CC4(C)C)cc3n2)CC1 [Example I-486] | 42 nM |  |  | 70 nM | > 2000 nM | > 2000 nM
30 | Cc1ccc(N2CCN(C(=O)c3cc4nc(-c5ccc(Cl)c(F)c5)cc(C(C)(C)C)c4o3)C(C)(C)C2)nc1C(=O)O [Example I-487] | 0.2 nM | > 2000 nM | > 2000 nM | 0.3 nM |  | 
31 | Cc1ccc(N2CCN(C(=O)c3cc4nc(C5CCC(C)(C)CC5)cc(C(C)(C)C)c4o3)C(C)(C)C2=O)nc1C(=O)O [Example I-488] | 6.5 nM | > 2000 nM | > 2000 nM | 14 nM |  | 
